# Measured values reported in paper PMC8434204, “Discrimination of Methionine Sulfoxide and Sulfone by Human Neutrophil Elastase” (Molecules, 2021).
# Like-named read-outs stand apart in the source and are kept apart here. Square brackets hold non-standard residues; d marks the D form. Peptide text beside a SMILES is read from it. * marks the point of attachment. Met(O2) = CS(=O)(=O)CC[C@H](N)C(=O)O; Met(O) = CS(=O)CC[C@H](N)C(=O)O; pNA = O=[N+]([O-])c1ccc(N*)cc1; MeOSuc = COC(=O)CCC(=O)*
# Legend:
# [1] = biological target: T1, Human neutrophil elastase (HNE) (Homo sapiens, UniProt P08246); assay: Inhibition of HNE proteolysis by peptide aldehyde inhibitors; assay type: biochemical; conditions: for Ki: 10 nM active HNE, 100 nM Ac-RM(O2)AA-pNA substrate (Figure 3), 20 min complex formation at RT, 405 nm, Morrison equation for tight-binding inhibitors, three replicate experiments of triplicate measurements; for Relative Potency (fold inhibition enhancement relative to Ac-RMAV-H): ratio of Ki values relative to non-oxidised Ac-RMAV-H
# T1 construct: HNE purified from purulent human sputum (Elastin Products Company, Owensville, MO, USA); purchased Elastin Products Company, Owensville, MO, USA; host or cells: purulent human sputum (natural source)
# T1 sequence (P08246 30-247 limits assumed): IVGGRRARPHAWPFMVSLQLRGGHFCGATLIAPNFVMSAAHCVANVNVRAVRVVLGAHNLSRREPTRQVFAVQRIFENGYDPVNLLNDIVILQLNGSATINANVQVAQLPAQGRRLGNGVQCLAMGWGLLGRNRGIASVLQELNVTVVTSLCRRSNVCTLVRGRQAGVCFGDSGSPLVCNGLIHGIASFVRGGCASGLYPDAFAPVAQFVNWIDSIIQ
# Experimental: Figure 3 Dose-response plot of Ac-RMAV-H peptide aldehyde inhibitor variants containing differing oxidation states of the P3 methionine residue. All assays contained 10 nM active HNE and 100 nM Ac-RM(O2)AA-pNA substrate. Data are reported as percent activity remaining compared to uninhibited controls, and data points represent the mean observed from three replicate experiments of triplicate measurements. Error bars show SEM. Where not visible, error bars are smaller than the pictured data point.
# (§1) For substrate library kinetic assay screen, reactions were initiated by addition of HNE purified from purulent human sputum (Elastin Products Company, Owensville, MO, USA) to triplicate microplate wells containing each substrate, and the rate of reaction determined spectrophotometrically at 405 nm. Final concentrations were 300 µM substrates and 1 µg/mL HNE in 250 µL assay buffer (100 mM Tris pH 8, 50 mM NaCl, 10% DMF, 0.05% Triton X-100). For in-depth assays of candidate substrates and inhibitors, the active site concentration of HNE was first determined by titration with A1AT. Briefly, 250 nM A1AT was serially diluted in a 96-well microplate to provide a final assay volume of 250 µL. A total of 2.5 µL of HNE stock solution (100 µg/mL) was added to each well and complex formation was allowed to proceed over a period of 20 min at RT. Assays were initiated by addition of Ac-RM(O2)PA-pNA substrate, monitoring the evolution of free para-nitroanilide at 405 nm for 90 s again at RT. Kinetic assays of synthesized pNA substrates were carried out similarly omitting the A1AT and serially diluting the substrates, KM and Vmax values were determined by GraphPad Prism 5.01 (La Jolla, CA, USA) Michaelis–Menten non-linear regression. Assays with peptide aldehyde inhibitors were carried out as with the active site titration. Inhibition constants were calculated in GraphPad Prism by non-linear regression using the Morrison equation for tight-binding inhibitors.
# [2] = biological target: T1, Human neutrophil elastase (HNE); conditions: literature value; read-out: KM, previously published value; cited from earlier work
# Excerpt: The standard substrate MeOSuc-AAPV-pNA was also synthesised to provide a benchmark against other studies. […] Acetylated forms of the P4 arginine substrates were synthesised to assess the effect of a charged N-termin ...
# [3] = biological target: T1, Human neutrophil elastase (HNE); assay: Kinetic assays of synthesized pNA substrates (Michaelis-Menten); assay type: biochemical
# Experimental: Figure 2 Substrate concentration versus velocity plot of candidate pNA substrates containing a P1 valine residue (A), or a P1 alanine residue (B), assayed against 3 nM active HNE. […] Data points represent the average rate observed from three replicate experiments of triplicate measurements. […] Error bars show SEM. Where not visible, error bars are smaller than the pictured data point.
# as §1
compound,measurement,setting,value
CSCC[C@H](NC(=O)[C@H](CCCNC(=N)N)NC(C)=O)C(=O)N[C@@H](C)C(=O)N[C@H](C=O)C(C)C [Ac-RMAV-H] (Ac-RMAV-aldehyde),Ki,[1],7.27 µM
same,Relative Potency (fold inhibition enhancement relative to Ac-RMAV-H),[1],1
CC(=O)N[C@@H](CCCNC(=N)N)C(=O)N[C@@H](CCS(C)(=O)=O)C(=O)N[C@@H](C)C(=O)N[C@H](C=O)C(C)C [Ac-RM(O2)AV-H] (Ac-R[Met(O2)]AV-aldehyde),Ki,[1],0.147 µM
same,Relative Potency (fold inhibition enhancement relative to Ac-RMAV-H),[1],49.4
MeOSuc-AAPV-pNA (SMILES COC(=O)CCC(=O)N[C@@H](C)C(=O)N[C@@H](C)C(=O)N1CCC[C@H]1C(=O)N[C@H](C(=O)Nc1ccc([N+](=O)[O-])cc1)C(C)C) [standard HNE substrate synthesised as benchmark against other studies],Km,[2],140 µM
same,kcat,"[3]; 3 nM active HNE (purified from purulent human sputum), 100 mM Tris pH 8, 50 mM NaCl, 10% DMF, 0.05% Triton X-100, RT, 405 nm, Michaelis-Menten non-linear regression, three replicate experiments of triplicate measurements",2.90 s⁻¹
same,Km,"[3]; 3 nM active HNE, 100 mM Tris pH 8, 50 mM NaCl, 10% DMF, 0.05% Triton X-100, RT, 405 nm, Michaelis-Menten non-linear regression, ± SEM",153 ± 17.6 µM
same,kcat/KM,"[3]; catalytic efficiency calculated from kcat and KM, 3 nM active HNE",18900 M⁻¹ s⁻¹
CC(=O)N[C@@H](CCCNC(=N)N)C(=O)N[C@@H](CC[S+](C)[O-])C(=O)N[C@@H](C)C(=O)N[C@H](C=O)C(C)C (stereo partly shown) [Ac-RM(O)AV-H] (Ac-R[Met(O)]AV-aldehyde),Ki,[1],5.55 µM
same,Relative Potency (fold inhibition enhancement relative to Ac-RMAV-H),[1],1.3
